Tested on: adipose cells of rats
Test: Evaluation of the sugar transporting capacity (2-[14C(U)]-deoxy-D-glucose incorporation)
Type: cell-based
Settings: insulin 100 nM; isolated rat adipose cells
Protocol: After the decapitation and venesection of 6 male Wistar rats (body weight: 150 to 200 g), an incision was made in the abdomen of each rat to extract 6 g in total of epididymal adipose tissues. The tissues were finely cut into 2 mm×2 mm pieces in 6 ml of KRH (Krebs-Ringer Hepes, composition: 130 mM of sodium chloride, 4.7 mM of potassium chloride, 1.2 mM of potassium dihydrogenphosphate, 1.2 mM of magnesium sulfate, 1 mM of calcium chloride and 25 mM of Hepes, pH=7.6) containing 5% of BSA (bovine serum albumin). 24 mg of collagenase (type I) was added thereto and the digestion treatment was conducted for about 40 minutes to obtain about 6 ml of isolated adipose cells. The collagenase was removed by the buffer exchange. 2% BSA/KRH solution was added to the residue for the re-suspension to obtain 45 ml of an adipose cell suspension.
The sugar transporting capacity of the compound of the present invention was evaluated with reference to a method described in a literature [Annual Review of Biochemistry, Vol. 55, p. 1059 (1986)]. […]
The sugar transporting capacity was evaluated by measuring the quantity of 2-[^14C(U)]-deoxy-D-glucose incorporated per a unit time. […] The quantity of 2-[^14C(U)]-deoxy-D-glucose contained in the adipose cell layer was determined with a liquid scintillation counter to determine the quantity of the incorporated sugar. […]

insulin
effect of increasing the sugar-transporting capacity versus insulin-free control group: about 7 times
